In US11274132B2, “Combined preparations of PKM2 modulators and HMGB1” (Ruprecht-Karls-Universität Heidelberg, priority 2015, dated 2022):
“Also recorded” adds a separate entry of the source. Read-outs that look alike come from different tables or passages of the source. Residues, ends and D or L forms follow the SMILES beside them.

What was measured:
[1] = CellTiter-Glo Luminescent Cell Viability Assay; assay type: cell-based, human; conditions: human, CLL cells from a patient, DASA 100 μM, read-out: Viable cells [DASA]
[2] = system: colorectal cancer cells; assay: Crystal violet cytotoxicity assay, cell lines not given; assay type: cell-based
Experimental: (§1) Human colon carcinoma cell lines SW480, HCT116, HT29 and Caco2, the human glioblastoma cell line U251MG and the Natural killer cell line NK-92 Cl were purchased from ATCC. Cell lines were regularly tested for contamination by multiplex PCR performed in the Genomics and Proteomics Core Facility 2 (DKFZ, Heidelberg, Germany). For experiments, cells were cultured for no more than 10 passages. Rho zero cells were generated as described earlier 1. (Gdynia, G. et al. Danger signaling protein HMGB1 induces a distinct form of cell death accompanied by formation of giant mitochondria. Cancer research 70, 8558-8568). Cells used in the experiments were cultured in RPMI (#1640, colon carcinomas, NK cells) or DMEM high glucose (#41965-039, glioblastoma cells) medium. Rho zero cells were generated as described earlier (Gdynia, G. et al. ibd.). Briefly, cells were cultured in RPMI medium (10% FCS, 1% P/S) supplemented with 250 ng/ml ethidiumbromide, 50 μg/ml L-pyruvate and 5 mg/ml uridine over a period of 12 weeks. For cytotoxicity measurements, cells were cultured in 96-well plates, treated with recombinant human HMGB1 protein (Sigma-Aldrich®), glycyrrhizinic acid ((3β, 18α)-30-hydroxy-11, 30-dioxoolean-12-en-3-yl 2-O-β-D-glucopyranuronosyl-β-D-glucopyranosiduronic acid)) (Sigma-Aldrich®), 10 μM (non-toxic) or 100 μM (cytotoxic) P-M2tide (aa sequence: GGAVDDDpYAQFANGG; #BML-P239-0001; Enzo Life Sciences) or 100 μM ML-265 (Cayman Chemical), then cell viability was assessed by crystal violet staining (Gillies, R. J., Didier, N. & Denton, M. Determination of cell number in monolayer cultures. Analytical biochemistry 159, 109-113 (1986)). Malic enzyme 1 knock-down was performed with 40 nM siRNA using lipofectamine in 6-well plates followed by treatment with 80 nM HMGB1 for 72 h. Sequences of siRNA were: ME1, 5′-[…]-3′ and scrambled control 5′-CCUGCAGUACUUCAAGCGGtt-3′. PKM2 siRNA was from Santa Cruz. A nonspecific siRNA served as control (Dharmacon, Schwerte, Germany). For overexpression of PKM2 or ME1, cells were transfected with pCMV-PKM2 (Sino Biological Inc., Beijing, China) or pCMV-ME1 (OriGene, Rockville, Md., USA) using Lipofectamine 2000. For cytotoxicity measurements confluent cells were cultured in 96-well plates if not otherwise indicated. Cytotoxic activity of supernatants from stimulated NK cells was assessed in 96-well plates for 3 days with RPMI medium as reference. Recombinant human HMGB1 (10 ng, Sigma) suited as positive control. For mass isotopomer assays, cells were cultured in glucose- or glutamine-free medium supplemented with either uniformly labeled (U)-13C-D-glucose or U-13C-glutamine (Sigma-Aldrich®).

[3] = target: PKM2 (Homo sapiens, UniProt P14618); assay: Immunoprecipitation with 125I-labeled HMGB1 (PKM2 pull-down); assay type: binding; design: endogenous in cells; conditions: P-M2tide at non-cytotoxic concentrations
PKM2, sequence (P14618 whole entry): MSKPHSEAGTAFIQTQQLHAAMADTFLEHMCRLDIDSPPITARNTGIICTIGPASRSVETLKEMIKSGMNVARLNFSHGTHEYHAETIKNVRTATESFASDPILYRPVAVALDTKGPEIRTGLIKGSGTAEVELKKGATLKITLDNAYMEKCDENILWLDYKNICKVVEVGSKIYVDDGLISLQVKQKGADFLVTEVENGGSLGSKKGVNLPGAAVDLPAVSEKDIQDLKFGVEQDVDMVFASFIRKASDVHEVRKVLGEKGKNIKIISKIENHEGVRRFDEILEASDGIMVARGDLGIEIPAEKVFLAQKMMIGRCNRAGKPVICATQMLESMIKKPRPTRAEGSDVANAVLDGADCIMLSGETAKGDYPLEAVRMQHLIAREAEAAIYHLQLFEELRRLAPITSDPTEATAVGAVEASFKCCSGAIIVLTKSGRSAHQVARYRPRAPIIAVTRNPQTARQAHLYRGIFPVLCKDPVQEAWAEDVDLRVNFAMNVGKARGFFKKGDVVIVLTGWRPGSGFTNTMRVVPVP
Experimental: FIG. 6: Co-administration of HMGB1 and an activator (A left and right) or an inhibitor (B) of PMK2 has a synergistic cytotoxic effect, as determined in the crystal violet cytotoxicity assay (assays were performed in duplicate, * indicates p<0.05). (C) Immunoprecipitation with I125-labeled HMGB1 (PKM2 pull-down). HMGB1, like phosphotyrosine-peptides, binds close to the allosteric center of PKM2, leading to a competition in binding.

[4] = system: CLL cells; assay: CellTiter-Glo Luminescent Cell Viability Assay; assay type: cell-based, human
[5] = system: SW480 colorectal cancer cells; assay: Crystal violet cytotoxicity assay; assay type: cell-based; conditions: 72 h
Experimental: as §1

[6] = system: HCT116 colorectal cancer cells; assay: Crystal violet cytotoxicity assay; assay type: cell-based; conditions: 72 h
Experimental: as §1

[7] = system: HT29 cells; assay: Crystal violet cytotoxicity assay; assay type: cell-based; conditions: 80 nM or 160 nM, 72 h
Experimental: as §1

[8] = NK cell derived HMGB1 approx. 16 nM, recombinant human HMGB1 80 nM

For O=S(=O)(c1ccc2c(c1)OCCO2)N1CCN(S(=O)(=O)c2c(F)cccc2F)CC1 [DASA, 1-(2,6-Difluorophenylsulfonyl)-4-(2,3-dihydrobenzo[b][1,4]dioxin-6-ylsulfonyl)piperazine], which viability at 100 μM ([1]; patient P0010, sample 13PB0501) is on record?
The viability at 100 μM was 100%.

What about the viability at 100 μM ([1]; patient P0010, sample 14PB0132) of the same compound?
Its viability at 100 μM is 67%.

And the viability at 100 μM ([1]; patient P0074, sample 14BP0079)?
Its viability at 100 μM is 37%.

What about the viability at 100 μM ([1]; patient P0369, sample 13PB0555) of the same compound?
The viability at 100 μM was 100%.

What about the viability at 100 μM ([1]; patient P0460, sample 14PB0471) of the same compound?
Its viability at 100 μM is 72%.

And the viability at 100 μM ([1]; patient P0641, sample 13PB0500)?
Its viability at 100 μM is 100%.

What about the viability at 100 μM ([1]; patient P0641, sample 13PB0649) of the same compound?
The viability at 100 μM was 88%.

And the viability at 100 μM ([1]; patient P0645, sample 13PB0473)?
The viability at 100 μM was 90%.

What about the viability at 100 μM ([1]; patient P0701, sample 14PB0451) of the same compound?
The viability at 100 μM was 100%.

Which “cytotoxicity of glutaminolysis inhibition together with HMGB1” value ([2]; L-DON 1 μM with HMGB1, glucose deprived and glucose supplemented medium) does the source give for [N-]=[N+]=CC(=O)CC[C@H](N)C(=O)O [L-DON, 6-diazo-5-oxo-L-norleucine] here?
The value was “synergistic cytotoxicity”.

Which “induction of cell death” value ([2]; 100 μM, 24 h) does the source give for Cn1c2cc([S+](C)[O-])sc2c2cnn(Cc3cccc(N)c3)c(=O)c21 (stereo not drawn) [ML-265, 6-(3-aminobenzyl)-4-methyl-2-(methylsulfinyl)-4,6-dihydro-5H-thieno[2′,3′:4,5]pyrrolo[2,3-d]pyridazin-5-one] here?
Its value is “did not induce cytotoxicity; also recorded: not able to induce cell death”.

What about the “competition with binding of HMGB1 to PKM2” value [3] of the same compound?
Its value is “did not compete”.

And the “competition with binding of HMGB1 to PKM2” value ([3]; listed as ML265)?
Its value is “does not compete”.

With CC(C)[C@H](NC(=O)[C@H](C)NC(=O)CNC(=O)CN)C(=O)N[C@@H](CC(=O)O)C(=O)N[C@@H](CC(=O)O)C(=O)N[C@@H](CC(=O)O)C(=O)N[C@@H](Cc1ccc(OP(=O)(O)O)cc1)C(=O)N[C@@H](C)C(=O)N[C@@H](CCC(N)=O)C(=O)N[C@@H](Cc1ccccc1)C(=O)N[C@@H](C)C(=O)N[C@@H](CC(N)=O)C(=O)NCC(=O)NCC(=O)O [P-M2tide, GGAVDDDpYAQFANGG] (HELM PEPTIDE1{G.G.A.V.D.D.D.[O=C([C@H](Cc1ccc(OP(=O)(O)O)cc1)N[*:1])[*:2]].A.Q.F.A.N.G.G}$$$$V2.0) as the compound, how does the toxicity ([2]; 10 μM P-M2tide) read?
The toxicity was “non-toxic”.

What about the toxicity ([2]; 100 μM P-M2tide) of the same compound?
Its toxicity is “cytotoxic”.

What about the “Viable cells [PM2-tide]” value ([4]; patient P0010, sample 13PB0501, PM2-tide 100 μM, 250 µM) of the same compound?
Its value is 100%.

What about the “Viable cells [PM2-tide]” value ([4]; patient P0010, sample 14PB0132, PM2-tide 100 μM, 250 µM) of the same compound?
The value was 75%.

What about the “Viable cells [PM2-tide]” value ([4]; patient P0074, sample 14BP0079, * responding to 100 μM PM2-tide) of the same compound?
Its value is 46%*.

What about the “Viable cells [PM2-tide]” value ([4]; patient P0369, sample 13PB0555, PM2-tide 100 μM, 250 µM) of the same compound?
Its value is 100%.

What about the “Viable cells [PM2-tide]” value ([4]; patient P0460, sample 14PB0471, * responding to 100 μM PM2-tide) of the same compound?
The value was 56%*.

What about the “Viable cells [PM2-tide]” value ([4]; patient P0641, sample 13PB0500, PM2-tide 100 μM, 250 µM) of the same compound?
The value was 100%.

What about the “Viable cells [PM2-tide]” value ([4]; patient P0641, sample 13PB0649, PM2-tide 100 μM, 250 µM) of the same compound?
The value was 93%.

What about the “Viable cells [PM2-tide]” value ([4]; patient P0645, sample 13PB0473, PM2-tide 100 μM, 250 µM) of the same compound?
Its value is 91%.

What about the “Viable cells [PM2-tide]” value ([4]; patient P0701, sample 14PB0451, PM2-tide 100 μM, 250 µM) of the same compound?
Its value is 100%.

For CC[C@H]1/C=C/C=C/C[C@@H](C)[C@H](O)[C@@](C)(O)C(=O)[C@@H](C)[C@H](O)[C@@H](C)C(=O)[C@@H](C)[C@H](O)[C@@H](C)/C=C/C(=O)O[C@@H]2[C@H](C)[C@H](CC1)O[C@]1(CC[C@H](C)[C@H](C[C@@H](C)O)O1)[C@H]2C [oligomycin, reference compound], which cell death ([5]; oligomycin 10 ng/ml) is on record?
The cell death was “rapid cell death”.

What about the cell death ([6]; oligomycin 10 ng/ml) of the same compound?
The cell death was “rapid cell death”.

Which cytotoxicity ([2]; 80 nM, 24 h, diluted in IgG1 control supernatant) does the source give for “HPLC-purified HMGB1: HPLC-purified HMGB1 from the supernatant of Nkp30 stimulated blood donor NK cells” here?
Its cytotoxicity is “substantial cytotoxicity”.

For “NK cell derived HMGB1: HMGB1 isolated from the cytosolic granules of the NK cell line NK-92 CI by HPLC (eluate #38)”, which “cell death (cytotoxicity)” value [5, 8] is on record?
The value was “efficiently killed”.

And the “side-by-side cytotoxicity versus recombinant HMGB1” value [7]?
The value was “higher cytotoxicity than recombinant HMGB1”.

And the “cell death (cytotoxicity)” value [6, 8]?
Its value is “efficiently killed”.
